According to patent publication US10821091B2, “Retinoid compositions and methods of increasing immune cell-mediated killing of IDH mutant cancer cells” (UNIVERSITY OF PITTSBURGH—OF THE COMMONWEALTH SYSTEM OF …, priority 2017, dated 2020):

Key:
IDH mutant gliomas = test: Survival in RCAS tva immunocompetent glioma mouse model; format: in vivo, mice
Procedure: Immunocompetent mouse model. The RCAS/tva system was used to ectopically express muIDH1 (R132H) in PDGF-driven gliomas. RCAS retroviral vectors were used to transfer genes to specific cell types in vivo that express the receptor tva to develop a pair of isogenic mouse tumor models that differ only in IDH1 mutation status. Three RCAS vectors expressing PDGF, wtIDH1-shp53, or muIDH1 (R132H)-shp53 were constructed and used in three different Ntva mouse strains. Mice were injected with RCAS-PDGF-producing DF1 cells together with either DF1 cells producing RCAS-wtIDH1-shp53 (wtIDH1) or RCAS-mutantIDH1-shp53 (muIDH1). Tumors were generated from these injections with identical genomic backgrounds, with the initiating events differing only in IDH1 mutation status.

IDH mutant tumors = test: NK depletion (anti-NK1.1) experiment in tumor-bearing C57BL6/J nude mice; format: in vivo
Procedure: Mice. […] DMSO-treated mice were used as controls.
Anti-tumor effects of ATRA in vivo is dependent upon NK activity in vivo. Contrary to the delayed pro-differentiation effect of ATRA in vitro (FIG. 13A through 13D), the anti-tumor effects in vivo were more immediate. Thus, it was hypothesized that ATRA exercises alternate pathways to curb tumor growth. […] To further substantiate the role of NKs in anti-tumor effect of ATRA, a NK blocking experiment was performed in vivo. Briefly, IDH mutant or WT tumor-bearing C57BL6/J nude mice were injected with […] anti-NK1.1 (or control isotype) antibody intra-peritoneally on the first day of ATRA treatment. ATRA treatment was started when tumors were about 25 mm^2 in size and administered every other day.

[1] = test system: IDH mutant primary glioma cells; test: Tumor growth in athymic nude mice with flank glioma tumors; format: in vivo
Procedure: Mice. 6-8 week old Balb/c nude mice (CAnN.Cg-Foxn1nu/Crl) were purchased from Charles River Laboratories. Mice were injected with 10^6 IDH WT or mutant primary glioma cells sub-cutaneously in the right flank. When the tumors were about 25 mm^2, ATRA treatment was started. 10 mg/Kg ATRA was administered to mice intra-peritoneally (i.p.) every alternate day until termination of the experiment. DMSO-treated mice were used as controls. The mice were monitored for signs of drug toxicity such as weight-loss, lethargy, skin lesions and diarrhea. The tumors were measured every 3 days, and the mice were sacrificed when the tumors were about 400 mm^2. For NK depletion experiments, 6-week old B6 nude mice (B6.Cg-Foxn1nu/J) were purchased from The Jackson Laboratory. NK depletion was performed by injecting mice with 200 μg of anti-NK1.1 antibody (Biolegend) i.p. on the day ATRA treatment was started. Mice injected with 200 μg of an isotype antibody were used as controls. Mice were bled and evaluated for circulating NKs by flow cytometry.
ATRA promotes tumor stasis in IDH mutant tumor-bearing mice. To determine the value of ATRA as a therapeutic modality, its anti-tumor efficacy in vivo was evaluated. […] Tumors were measured every 3 days. […] Resected tumors from ATRA or DMSO-treated mice were digested to obtain single cell suspensions and assessed for killing by human and mouse NK cells ex vivo.

[2] = test system: IDH MUT (IDH1 R132H) tumors; test: CCL2 neutralization in ATRA-treated tumor-bearing mice; format: in vivo; conditions: 10 mg/kg ATRA every alternate day, 1 μg anti-CCL2 neutralizing antibody
Procedure: IDH WT and MUT (IDH1 R132H) tumor-bearing mice were treated with 10 mg/kg ATRA every alternate day starting on day 18 after tumor inoculation. Mice were also injected with 1 μg anti-CCL2 neutralizing antibody (or anti isotype antibody) on the 1st day of ATRA treatment.

[3] = test system: IDH mutant primary glioma neurospheres; test: Differentiation of primary glioma neurospheres; format: cell-based, human; conditions: for morphological changes: 1 μM ATRA
Procedure: Glioma cell culture. Resected tumors from Glioma patients (both IDH wt and mutant) were mechanically dissociated to form a single cell suspension. Contaminating RBCs were removed using an RBC lysis buffer (eBioscience) and cells were propagated into neural stem cells in Neurocult™ NS-A proliferation kit supplemented with 20 ng/mL Human Recombinant EGF, 10 ng/mL Human Recombinant bFGF) and 2 μg/mL Heparin Solution (Stemcell Technologies Canada Inc.). After 3 weeks in culture, neurospheres were moved to Complete Medium (CM) in order to propagate differentiation into adherent cell lines.
All-trans retinoic acid (ATRA) is a differentiating agent for multiple types of cancers, including IDH mutant acute myeloid leukemia (AML). Therefore, efficacy of ATRA as a differentiating agent in IDH mutant gliomas was evaluated. IDH mutant or WT primary glioma neurospheres were treated with 1 μM ATRA for 2, 7 or 14 days. At each time point, cells were evaluated for morphological changes and changes in their molecular profile. Vehicle (DMSO)-treated cells served as controls, while cells treated with 10% FBS served as differentiation (positive) controls.

[4] = test system: ATRA-treated IDH mutant tumors; test: Ex vivo NK killing of resected tumors; format: cell-based, mice; conditions: vs DMSO-treated control tumors
Procedure: ATRA promotes tumor stasis in IDH mutant tumor-bearing mice. To determine the value of ATRA as a therapeutic modality, its anti-tumor efficacy in vivo was evaluated. Athymic nude mice were implanted with 10^6 IDH mutant or WT primary glioma cells in the flank. 21 days after tumor inoculation (when tumors were about 25 mm^2), 10 mg/kg ATRA was administered every other day for 21 days. Tumors were measured every 3 days. […] Resected tumors from ATRA or DMSO-treated mice were digested to obtain single cell suspensions and assessed for killing by human and mouse NK cells ex vivo.

[5] = test system: CCL2 and CXCL12 in IDH mutant cells; test: Chemokine array on culture supernatants; format: cell-based, human
Procedure: ATRA increases chemotaxis towards IDH mutant cells in a CCL2-dependent manner. […] To confirm these findings, chemotaxis assays were performed in vitro. ATRA-treated IDH mutant or WT cells were plated in the bottom well of a transwell. Different immune cell subsets (as indicated) were placed in the top chamber at a 10:1 E:T ratio. After 48 hours, cells from the bottom chamber were harvested and analyzed by flow cytometry. […] To evaluate the mechanisms of changes in chemotaxis induced by ATRA, a chemokine array was performed. Supernatants from ATRA- (or DMSO)-treated WT and IDH mutant cultures were used to assess changes in chemokine expression using a chemokine array kit (R&D systems). Results were interpreted visually as well as quantified using an imaging software (ImageJ). […] To substantiate the role of CCL2 in NK and T cell chemotaxis, transwell assays were repeated as described earlier, in the presence of CCL2-blocking antibody (R&D systems).

## CC1=C(/C=C/C(C)=C/C=C/C(C)=C/C(=O)O)C(C)(C)CCC1 [ATRA, all-trans retinoic acid]
IDH mutant gliomas; ATRA-treated mice
  infiltration of NK cells in the tumor (immunohistochemistry): increased infiltration of NK cells in the tumor
IDH mutant gliomas; mice bearing IDH mutant tumors, ATRA every alternate day for 21 days, vs vehicle-treated/IDH wild type
  survival: significantly longer survival
IDH mutant tumors; ATRA-treated mice vs DMSO-treated controls
  levels of NKs in TILs by flow cytometry: higher levels of NKs
IDH mutant tumors; IDH mutant tumor-bearing C57BL6/J nude mice, ATRA every other day, vs DMSO-treated controls
  tumor growth: significantly slower tumor growth
IDH mutant tumors; IDH mutant tumor-bearing mice treated with ATRA
  tumor growth after depletion of NKs (anti-NK1.1): depletion of NKs abrogated the anti-tumor effects of ATRA
[1]; 10 mg/kg every other day for 21 days, vs DMSO (vehicle)-treated mice and mice with WT tumors
  tumor growth: significantly slower tumor growth
[1]; ATRA-treated IDH mutant tumors (data not shown)
  ex vivo expression of ULBP1 and ULBP3 in tumors: increased ex vivo expression of ULBP1 and ULBP3
[2]
  tumor stasis with CCL2 blockade: CCL2 blockade reversed ATRA-mediated tumor stasis
[3]; 14 days
  morphological changes: induced morphological changes in IDH mutant primary glioma neurospheres, but not WT neurospeheres
[3]; earlier time points
  morphological changes: Minimal morphological changes
[3]; IDH mutant glioma stem cells
  time of ATRA treatment after which differentiation occurred: > 10 days
[3]; IDH mutant neurospheres, ATRA 14 days, PCR (Nestin also flow cytometry)
  levels of stem cell markers Sox2, CD133 and Nestin: significantly lower levels
[3]; IDH mutant neurospheres, ATRA 14 days, PCR and flow cytometry
  levels of GFAP, astrocytic differentiation marker: increased levels of GFAP
[4]
  ex vivo killing by human natural killer cells: more susceptible to killing
  ex vivo killing by mouse natural killer cells: more susceptible to killing
[5]; ATRA-treated IDH mutant cells vs DMSO-treated controls
  levels of CXCL12: lower levels of CXCL12
[5]; supernatants of ATRA- or DMSO-treated WT and IDH mutant cultures
  CCL2 production: CCL2 production was only observed in ATRA treated IDH mutant cells
